Each structure is given as a SMILES string.

Experiment [1] has as its target T1, TYK2 JH2 (Homo sapiens, UniProt P29597).
T1 construct: purchased DiscoverX (KINOMEscan KdELECT service); host or cells: E. coli BL21-derived (T7 phage display) or HEK-293
Put plainly: TYK2 JH2 binding assay (KINOMEscan KdELECT competitive binding). Conditions: TYK2 JH2 domain, DiscoverX KINOMEscan KdELECT (Assay A); read-out: Biochemical TYK2_DiscoverX_JH2_BND_Kd. In short, it runs like this:
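Kd values come from qPCR measurement of kinase retained on an immobilized-ligand resin after 1 h room-temperature competition with compound in an 11-point, 3-fold series.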

Experiment [2] concerns JAK1/TYK2 pSTAT5 (Tyr694/699) in THP-1 cell line. Briefly: IFNa-stimulated JAK1/TYK2 pSTAT5 (Tyr694/699) inhibition cellular assay, AlphaLISA. Type of experiment: cell-based. Conditions: Homo sapiens; THP-1 cells, IFNa-stimulated, AlphaLISA (Assay B); read-out: Cellular_THP1_IFNa-pSTATS_TYK2. The method, boiled down:
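An eight-point 6-fold titration of compound (0.04–10000 nM final) is given to THP-1 cells for 1 h before 30 min of IFNa exposure. Phospho-STAT5 is read by AlphaLISA at 615 nm. IC50 values are derived by logistic regression with bottom set to 0 and Hill slope set to −1.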
For orientation: Alpha assays give light when donor and acceptor beads are brought close together.

T1 sequence (P29597 589-875 limits assumed): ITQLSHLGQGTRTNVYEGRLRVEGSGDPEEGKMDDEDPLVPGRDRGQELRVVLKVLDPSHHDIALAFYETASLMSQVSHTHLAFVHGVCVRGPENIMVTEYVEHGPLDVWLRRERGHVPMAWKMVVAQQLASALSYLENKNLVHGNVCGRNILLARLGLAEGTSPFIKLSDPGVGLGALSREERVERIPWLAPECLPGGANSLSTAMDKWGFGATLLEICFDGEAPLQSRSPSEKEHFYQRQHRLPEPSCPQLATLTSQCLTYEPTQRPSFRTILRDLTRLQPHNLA

With `CNc1ncc(-c2nc3cc(N4CCC4)ccc3o2)c2cc(NC(=O)C3CC3)ncc12` [Example 277, N-(5-(5-(azetidin-1-yl)benzo[d]oxazol-2-yl)-8-(methylamino)-2,7-naphthyridin-3-yl)cyclopropanecarboxamide], the Kd in experiment [1] is at most 100 nM. In experiment [2], the IC50 was at most 500 nM.
The matching figures for `CNc1ncc(-c2nc3cc(N4CCC4COC)ccc3o2)c2cc(NC(=O)C3CC3)ncc12` (stereo not shown) [Example 278, N-(5-(5-(2-(methoxymethyl)azetidin-1-yl)benzo[d]oxazol-2-y1)-8-(methylamino)-2,7-naphthyridin-3-yl)cyclopropanecarboxamide]: at most 100 nM and at most 500 nM.
The matching figures for `CNc1ncc(-c2nc3cc(N4CC(F)(F)C4)ccc3o2)c2cc(NC(=O)C3CC3)ncc12` [Example 279, N-(5-(5-(3,3-difluoroazetidin-1-yl)benzo[d]oxazol-2-yl)-8-(methylamino)-2,7-naphthyridin-3-yl)cyclopropanecarboxamide]: at most 100 nM and at most 500 nM.
The matching figures for `CNc1ncc(-c2nc3cc(N4CC(OC)C4)ccc3o2)c2cc(NC(=O)C3CC3)ncc12` [Example 280, N-(5-(5-(3-methoxyazetidin-1-yl)benzo[d]oxazol-2-y1)-8-(methylamino)-2,7-naphthyridin-3-yl)cyclopropanecarboxamide]: at most 100 nM and at most 500 nM.
As for `CNc1ncc(-c2nc3cc(N4CC[C@@H](OC)C4)ccc3o2)c2cc(NC(=O)C3CC3)ncc12` [Example 281, (R)-N-(5-(5-(3-methoxypyrrolidin-1-yl)benzo[d]oxazol-2-y1)-8-(methylamino)-2,7-naphthyridin-3-yl)cyclopropanecarboxamide], in experiment [1], the Kd is at most 100 nM. In experiment [2], the IC50 is at most 500 nM.
For `CNc1ncc(-c2nc3cc(N4CC[C@H](OC)C4)ccc3o2)c2cc(NC(=O)C3CC3)ncc12` [Example 282, (S)-N-(5-(5-(3-methoxypyrrolidin-1-yl)benzo[d]oxazol-2-y1)-8-(methylamino)-2,7-naphthyridin-3-yl)cyclopropanecarboxamide], in that order: at most 100 nM and at most 500 nM.
Take `CNc1ncc(-c2nc3cc(N4CC(O)C4)ccc3o2)c2cc(NC(=O)C3CC3)ncc12` [Example 283, N-(5-(5-(3-hydroxyazetidin-1-yl)benzo[d]oxazol-2-y1)-8-(methylamino)-2,7-naphthyridin-3-yl)cyclopropanecarboxamide]: in experiment [1], the Kd was at most 100 nM. Besides, the IC50 in experiment [2] was at most 500 nM.
For `CNc1ncc(-c2nc3cc(N4CC(F)C4)ccc3o2)c2cc(NC(=O)C3CC3)ncc12` [Example 284, N-(5-(5-(3-fluoroazetidin~1-yl)benzo[d]oxazol-2-y1)-8-(methylamino)-2,7-naphthyridin-3-yl)cyclopropanecarboxamide], in that order: at most 100 nM and at most 500 nM.
The matching figures for `CNc1ncc(-c2nc3cc(N4CC5COCC(C5)C4)ccc3o2)c2cc(NC(=O)C3CC3)ncc12` [Example 285, N-(5-(5-(3-oxa~7-azabicyclo[3.3.1]nonan-7-yl)benzo[d]oxazol-2-yl)-8-(methylamino)-2,7-naphthyridin-3-yl)cyclopropanecarboxamide]: at most 100 nM and at most 500 nM.
The matching figures for `CNc1ncc(-c2nc3cc(N4CC(C)(OC)C4)ccc3o2)c2cc(NC(=O)C3CC3)ncc12` [Example 286, N-(5-(5-(3-methoxy-3-methylazetidin-1-yl)benzo[d]oxazol-2-yl)-8-(methylamino)-2,7-naphthyridin-3-yl)cyclopropanecarboxamide]: at most 100 nM and at most 500 nM.
`CNc1ncc(-c2nc3cc(N4CC(N(C)C)C4)ccc3o2)c2cc(NC(=O)C3CC3)ncc12` [Example 287, N-(5-(5-(3-(dimethylamino)azetidin-1-yl)benzo[d]oxazol-2-y1)-8-(methylamino)-2,7-naphthyridin-3-yl)cyclopropanecarboxamide]: the Kd in experiment [1] is at most 100 nM. In addition, the IC50 in experiment [2] was at most 500 nM.
For `CNc1ncc(-c2nc3cc(N4CC(C)(C)C4)ccc3o2)c2cc(NC(=O)C3CC3)ncc12` [Example 288, N-(5-(5-(3,3-dimethylazetidin-1-yl)benzo[d]oxazol-2-y1)-8-(methylamino)-2,7-naphthyridin-3-yl)cyclopropanecarboxamide], in that order: at most 100 nM and at most 500 nM.
For `CNc1ncc(-c2nc3cc(N4CCO[C@@H](C)C4)ccc3o2)c2cc(NC(=O)C3CC3)ncc12` [Example 289, (S)—N-(8-(methylamino)-5-(5-(2-methylmorpholino)benzo[d]oxazol-2-yl)-2,7-naphthyridin-3-yl)cyclopropanecarboxamide], in that order: at most 100 nM and at most 500 nM.
As for `CNc1ncc(-c2nc3cc(N4CCC[C@@H](OC)C4)ccc3o2)c2cc(NC(=O)C3CC3)ncc12` [Example 290, (R)-N-(5-(5-(3-methoxypiperidin-1-yl)benzo[d]oxazol-2-yl)-8-(methylamino)-2,7-naphthyridin-3-yl)cyclopropanecarboxamide], in experiment [1], the Kd is at most 100 nM. Moreover, the IC50 in experiment [2] was at most 500 nM.
For `CNc1ncc(-c2nc3cc(N4CCC[C@H](OC)C4)ccc3o2)c2cc(NC(=O)C3CC3)ncc12` [Example 291, (S)-N-(5-(5-(3-methoxypiperidin-1-yl)benzo[d]oxazol-2-y1)-8-(methylamino)-2,7-naphthyridin-3-yl)cyclopropanecarboxamide], in that order: at most 100 nM and at most 500 nM.
The matching figures for `CNc1ncc(-c2nc3cc(N4CCC[C@@H](C#N)C4)ccc3o2)c2cc(NC(=O)C3CC3)ncc12` [Example 292, (R)-N-(5-(5-(3-cyanopiperidin-1-yl)benzo[d]oxazol-2-y1)-8-(methylamino)-2,7-naphthyridin-3-yl)cyclopropanecarboxamide]: at most 100 nM and at most 500 nM.
The matching figures for `CNc1ncc(-c2nc3cc(N4CCC[C@H](C#N)C4)ccc3o2)c2cc(NC(=O)C3CC3)ncc12` [Example 293]: at most 100 nM and at most 500 nM.
Turning to `CNc1ncc(-c2nc3cc(NCCOC)ccc3o2)c2cc(NC(=O)C3CC3)ncc12` [Example 294, N-(5-(5-((2-methoxyethyl)amino)benzo[d]oxazol-2-yl)-8-(methylamino)-2,7-naphthyridin-3-yl)cyclopropanecarboxamide], the Kd in experiment [1] is at most 100 nM. The IC50 in experiment [2] was at most 500 nM.
The matching figures for `CNc1ncc(-c2nc3cc(NC(C)=O)ccc3o2)c2cc(NC(=O)C3CC3)ncc12` [Example 295, N-(5-(5-acetamidobenzo[d]oxazol-2-yl)-8-(methylamino)-2,7-naphthyridin-3-yl)cyclopropanecarboxamide]: at most 100 nM and at most 500 nM.
The matching figures for `CNc1ncc(-c2nc3cc(N4CC5(COC5)C4)ccc3o2)c2cc(NC(=O)C3CC3)ncc12` [Example 296, N-(5-(5-(2-oxa-6-azaspiro[3.3]heptan-6-yl)benzo[d]oxazol-2-y1)-8-(methylamino)-2,7-naphthyridin-3-yl)cyclopropanecarboxamide]: at most 100 nM and at most 500 nM.
As for `CNc1ncc(-c2nc3cc(N(C)C(C)=O)ccc3o2)c2cc(NC(=O)C3CC3)ncc12` [Example 297, N-(5-(5-(N-methylacetamido)benzo[d]oxazol-2-yl)-8-(methylamino)-2,7-naphthyridin-3-y1)cyclopropanecarboxamide], in experiment [1], the Kd was at most 100 nM. In addition, the IC50 in experiment [2] was at most 500 nM.
For `CNc1ncc(-c2nc3cc(N4C[C@@H]5C[C@H]4CO5)ccc3o2)c2cc(NC(=O)C3CC3)ncc12` [Example 298, N-(5-(5-((15,4S)-2-oxa-5-azabicyclo[2.2.1]heptan-5-yl)benzo[d]oxazol-2-y1)-8-(methylamino)-2,7-naphthyridin-3-yl)cyclopropanecarboxamide], in that order: at most 100 nM and at most 500 nM.
For the compound `CNc1ncc(-c2nc3cc(N4C[C@H]5C[C@@H]4CO5)ccc3o2)c2cc(NC(=O)C3CC3)ncc12` [Example 299, N-(5-(5-((1R,4R)-2-oxa-5-azabicyclo[2.2.1]heptan-5-yl)benzo[d]oxazol-2-y1)-8-(methylamino)-2,7-naphthyridin-3-yl)cyclopropanecarboxamide], the Kd in experiment [1] was at most 100 nM. Moreover, the IC50 in experiment [2] is at most 500 nM.
The matching figures for `CNc1ncc(-c2nc3cc(N4CC5(CN(C)C5)C4)ccc3o2)c2cc(NC(=O)C3CC3)ncc12` [Example 300, N-(5-(5-(6-methyl-2,6-diazaspiro[3.3]heptan-2-yl)benzo[d]oxazol-2-yl)-8-(methylamino)-2,7-naphthyridin-3-yl)cyclopropanecarboxamide]: at most 100 nM and at most 500 nM.
The matching figures for `CNc1ncc(-c2nc3cc(N4CCC(F)(F)CC4)ccc3o2)c2cc(NC(=O)C3CC3)ncc12` [Example 301, N-(5-(5-(4,4-difluoropiperidin-1-yl)benzo[d]oxazol-2-y1)-8-(methylamino)-2,7-naphthyridin-3-yl)cyclopropanecarboxamide]: at most 100 nM and at most 500 nM.
For `CNc1ncc(-c2nc3cc(N4CCO[C@H](C)C4)ccc3o2)c2cc(NC(=O)C3CC3)ncc12` [Example 302, (R)-N-(8-(methylamino)-5-(5-(2-methylmorpholino)benzo[d]oxazol-2-yl)-2,7-naphthyridin-3-yl)cyclopropanecarboxamide], in that order: at most 100 nM and at most 500 nM.

For the origin of these results see patent US20240025906A1 (NEURON23, INC., priority 2022, published 2024).
